We go through eight compounds from ChEMBL document CHEMBL1201862, “PubChem BioAssay data set” (2004).

Test systems include ACHN; BT-549; CCRF-CEM; EKVX; HCT-15; HOP-62; MCF7; MDA-MB-435; MOLT-4; PC-3; SK-MEL-5; SN12C; SNB-19; SR; SW-620; T47D; UACC-62; Malme-3M; NCI-H522.
Test in all cases: NCI-60 cell line screen, 48 h

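These data come from cells grown in 96-well plates and exposed to compound for 48 hours at five concentrations. At the GI50, growth is halved.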 Calls of active or inactive are those of the source. Cut-off read from the data, not from the text of the source: active = GI50 up to about 1.1 µM and inactive = higher.

For `O=c1cc(CSc2c(-c3ccccc3)c(=O)n(-c3ccccc3)c(=S)n2-c2ccccc2)[nH]c(=O)[nH]1`, the GI50 is > 100 µM (inactive) with ACHN; > 100 µM (inactive) with BT-549; > 100 µM (inactive) with CCRF-CEM; > 100 µM (inactive) in the experiment on EKVX; over 100 µM with HCT-15; > 100 µM (inactive) in the experiment on HOP-62. In addition, the GI50 in the experiment on MCF7, in the experiment on MDA-MB-435, in the experiment with MOLT-4, in the experiment on PC-3, in the experiment on SK-MEL-5 and with SN12C was > 100 µM (inactive) throughout. Also, the GI50 in the experiment on SNB-19, with SR, in the experiment with SW-620, in the experiment on T47D and in the experiment on UACC-62 was > 100 µM (inactive) in each case.

As for `Cc1nnc2n1N=C(c1cc(F)c(Cl)cc1Cl)/C(=C/c1ccc3c(c1)OCO3)S2`, the GI50 was 63.5 µM (inactive) with ACHN; > 100 µM (inactive) with BT-549; 43 µM (inactive) in the experiment with CCRF-CEM; 23.1 µM (inactive) in the experiment on EKVX; 52.5 µM in the experiment with HCT-15; 37.1 µM (inactive) with HOP-62. The GI50 in the experiment on MCF7 was 35.5 µM (inactive); in the experiment with MDA-MB-435 it was 45.9 µM (inactive); in the experiment on MOLT-4, 38.1 µM (inactive); in the experiment with Malme-3M, > 100 µM (inactive); with NCI-H522 it was 20.7 µM (inactive); in the experiment on PC-3, 63.1 µM (inactive). For the same compound, the GI50 in the experiment on SK-MEL-5 is > 100 µM (inactive); in the experiment on SN12C, 53.7 µM (inactive); in the experiment on SNB-19 it was > 100 µM (inactive); in the experiment with SW-620, > 100 µM (inactive); in the experiment with T47D it was 70.6 µM (inactive); in the experiment with UACC-62, 62.8 µM (inactive).

`COc1ccc2nc3n(c2c1)C(c1c(F)cccc1Cl)SC3` (configuration not stated): the GI50 is > 100 µM (inactive) in the experiment with ACHN; > 100 µM (inactive) in the experiment with BT-549; > 100 µM (inactive) in the experiment on CCRF-CEM; > 100 µM (inactive) in the experiment with EKVX; over 100 µM in the experiment with HCT-15; > 100 µM (inactive) with HOP-62. Also, the GI50 in the experiment on MCF7, in the experiment with MDA-MB-435, in the experiment on MOLT-4, with PC-3, in the experiment on SK-MEL-5 and in the experiment on SN12C was > 100 µM (inactive) in each case. The GI50 with SNB-19, in the experiment with SR, in the experiment with SW-620, with T47D and with UACC-62 was > 100 µM (inactive) each time.

As to `COc1cc(COC(=O)N[C@H](C(=O)O)C(C)(C)C)c([N+](=O)[O-])cc1OC`, the GI50 in the experiment on ACHN was > 100 µM (inactive); with BT-549, > 100 µM (inactive); in the experiment on CCRF-CEM it was > 100 µM (inactive); with EKVX it was > 100 µM (inactive); with HCT-15, over 100 µM; with HOP-62, > 100 µM (inactive). Besides, the GI50 in the experiment on MCF7, in the experiment with MDA-MB-435, with MOLT-4, in the experiment on Malme-3M, with PC-3 and in the experiment on SK-MEL-5 was > 100 µM (inactive) each time. For the same compound, the GI50 with SN12C, with SNB-19, with SR, in the experiment on SW-620, in the experiment on T47D and with UACC-62 was > 100 µM (inactive) throughout.

For `COc1cc2c(cc1OC)C1C(O)C(OC)C=C3CC[N+](C)(C2)C31` (configuration not stated), the GI50 is > 100 µM (inactive) in the experiment on ACHN; > 100 µM (inactive) in the experiment with BT-549; > 100 µM (inactive) in the experiment with CCRF-CEM; > 100 µM (inactive) with EKVX; over 100 µM in the experiment with HCT-15; > 100 µM (inactive) in the experiment with HOP-62. The GI50 with MCF7, in the experiment with MDA-MB-435, in the experiment on MOLT-4, with Malme-3M, in the experiment on NCI-H522 and in the experiment with PC-3 was > 100 µM (inactive) throughout. In addition, the GI50 in the experiment with SK-MEL-5, with SN12C, with SNB-19, in the experiment with SW-620, with T47D and in the experiment on UACC-62 was > 100 µM (inactive) each time.

With `CC(=O)N/N=C1\NC(=O)C[C@H]2[C@@H]3CC=C4C[C@@H](OC(C)=O)CC[C@]4(C)[C@H]3CC[C@]12C`, the GI50 in the experiment on ACHN is 21.5 µM (inactive); in the experiment on BT-549, 12.4 µM (inactive); in the experiment on CCRF-CEM, > 100 µM (inactive); in the experiment with EKVX it was 36.1 µM (inactive); in the experiment on HCT-15, 38.2 µM; with HOP-62, 13.6 µM (inactive). For the same compound, the GI50 was 46.9 µM (inactive) with MCF7; 4.06 µM (inactive) with MDA-MB-435; > 100 µM (inactive) in the experiment with MOLT-4; 39.1 µM (inactive) in the experiment with Malme-3M; 32.1 µM (inactive) in the experiment on NCI-H522; 29.9 µM (inactive) in the experiment with PC-3. The GI50 is 50.8 µM (inactive) with SK-MEL-5; 29.6 µM (inactive) with SN12C; 17.4 µM (inactive) in the experiment with SNB-19; 23.7 µM (inactive) in the experiment on SW-620; > 100 µM (inactive) in the experiment on T47D; 16.8 µM (inactive) in the experiment with UACC-62.

Consider `O=C(O)CN1CCN2CCCCCCCCN(CC1)CCN(CC(=O)O)CC2`, for which the GI50 with ACHN is > 100 µM (inactive); in the experiment on BT-549 it was > 100 µM (inactive); with CCRF-CEM it was > 100 µM (inactive); in the experiment on EKVX, > 100 µM (inactive); in the experiment on HCT-15, over 100 µM; in the experiment on HOP-62 it was > 100 µM (inactive). In addition, the GI50 in the experiment on MCF7 is > 100 µM (inactive); in the experiment with MDA-MB-435, > 100 µM (inactive); in the experiment on MOLT-4 it was > 100 µM (inactive); with Malme-3M, > 100 µM (inactive); in the experiment on NCI-H522, 64.6 µM (inactive); with PC-3, > 100 µM (inactive). Besides, the GI50 in the experiment on SK-MEL-5, in the experiment on SN12C, with SNB-19, in the experiment on SW-620, with T47D and in the experiment with UACC-62 was > 100 µM (inactive) in each case.

Turning to `N#Cc1cc(-c2nc3ccc(F)cc3s2)ccc1N`, the GI50 in the experiment on ACHN was > 100 µM (inactive); with BT-549, > 100 µM (inactive); in the experiment on CCRF-CEM, > 100 µM (inactive); in the experiment on EKVX it was 31.8 µM (inactive); in the experiment with HCT-15 it was 87.7 µM; in the experiment on HOP-62, 72.1 µM (inactive). Besides, the GI50 is 18 µM (inactive) in the experiment on MCF7; 17.7 µM (inactive) in the experiment with MDA-MB-435; > 100 µM (inactive) in the experiment on MOLT-4; 35.3 µM (inactive) in the experiment on Malme-3M; > 100 µM (inactive) in the experiment with NCI-H522; > 100 µM (inactive) in the experiment with PC-3. Besides, the GI50 in the experiment on SK-MEL-5, with SN12C, in the experiment with SNB-19, in the experiment with SW-620, with T47D and in the experiment with UACC-62 was > 100 µM (inactive) throughout.
